Counter-ions that a name gives are not always drawn.
Experiments:
[1] = target: T1, P2X7 receptor (Homo sapiens, UniProt Q99572); assay: P2X7 receptor antagonist test: bbATP-induced ethidium bromide fluorescence in THP-1 cells; assay type: cell-based; conditions: bbATP agonist, 37° C. for one hour, negative logarithm of concentration reducing bbATP agonist activity by 50%
T1 construct: 200 μl of a suspension of THP-1 cells; endogenous in cells; host or cells: THP-1 cells
T1 sequence (Q99572 1-595): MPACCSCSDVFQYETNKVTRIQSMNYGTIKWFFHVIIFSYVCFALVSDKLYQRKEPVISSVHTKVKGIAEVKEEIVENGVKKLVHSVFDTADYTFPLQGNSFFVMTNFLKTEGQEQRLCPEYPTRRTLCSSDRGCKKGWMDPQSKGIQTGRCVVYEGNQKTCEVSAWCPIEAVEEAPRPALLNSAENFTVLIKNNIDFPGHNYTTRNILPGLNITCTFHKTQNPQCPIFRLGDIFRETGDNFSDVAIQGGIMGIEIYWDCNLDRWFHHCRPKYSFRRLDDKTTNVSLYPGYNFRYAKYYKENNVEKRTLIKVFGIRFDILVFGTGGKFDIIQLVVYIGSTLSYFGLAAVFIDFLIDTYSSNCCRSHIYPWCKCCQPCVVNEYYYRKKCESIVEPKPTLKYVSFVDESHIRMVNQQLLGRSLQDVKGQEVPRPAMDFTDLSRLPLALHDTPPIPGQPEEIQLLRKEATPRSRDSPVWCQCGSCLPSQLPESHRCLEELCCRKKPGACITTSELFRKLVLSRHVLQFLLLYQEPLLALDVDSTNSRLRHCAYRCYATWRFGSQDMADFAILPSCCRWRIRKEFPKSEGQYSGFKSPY
Source text: Certain compounds such as benzoylbenzoyl adenosine triphosphate (bbATP) are known to be agonists of the P2X7 receptor, effecting the formation of pores in the plasma membrane (Drug Development Research (1996), 37(3), p.126). Consequently, when the receptor is activated using bbATP in the presence of ethidium bromide (a fluorescent DNA probe), an increase in the fluorescence of intracellular DNA-bound ethidium bromide is observed. The increase in fluorescence can be used as a measure of P2X7 receptor activation and therefore to quantify the effect of a compound on the P2X7 receptor.
In this manner, each of the title compounds of the Examples was tested for antagonist activity at the P2X7 receptor. Thus, the test was performed in 96-well flat bottomed microtitre plates, the wells being filled with 250 μl of test solution comprising 200 μl of a suspension of THP-1 cells (2.5×10^6 cells/ml) containing 10^−4M ethidium bromide, 25 μl of a high potassium buffer solution containing 10^−5M bbATP, and 25 μl of the high potassium buffer solution containing 3×10^−5M test compound. The plate was covered with aplastics sheet and incubated at 37° C. for one hour. The plate was then read in a Perkin-Elmer fluorescent plate reader, excitation 520 nm, emission 595 nm, slit widths: Ex 15 nm, Em 20 nm. For the purposes of comparison, bbATP (a P2X7 receptor agonist) and pyridoxal 5-phosphate (a P2X7 receptor antagonist) were used separately in the test as controls. From the readings obtained, a pIC50 figure was calculated for each test compound, this figure being the negative logarithm of the concentration of test compound necessary to reduce the bbATP agonist activity by 50%.

melting point | IC50 [1] [µM] | Structure (SMILES)
195 to 200 °C |  | CNCCCN(C)c1ccc2c(C(=O)NCC34CC5CC(CC(C5)C3)C4)c(Cl)ccc2n1 (as salt: TFA) [Example 208, N-(1-Adamantylmethyl)-6-chloro-2-{methyl[3-(methylamino)propyl]amino}quinoline-5-carboxamide]
184 to 185 °C |  | CNCCCc1ccc2c(C(=O)NCC34CC5CC(CC(C5)C3)C4)c(Cl)ccc2n1 (as salt: hydrochloride) [Example 167, N-(1-Adamantylmethyl)-6-chloro-2-[3-(methylamino)propyl]quinoline-5-carboxamide Sesquihydrochloride]
208 °C (dec.) |  | O=C(NCC12CC3CC(CC(C3)C1)C2)c1c(Cl)ccc2nc(CN3CCNCC3)ccc12 (as salt: hydrochloride) [Example 170, N-(1-Adamantylmethyl)-6-chloro-2-(piperazin-1-ylmethyl)quinoline-5-carboxamide Hydrochloride]
150 to 155 °C |  | CCNCCCc1ccc2c(C(=O)NCC34CC5CC(CC(C5)C3)C4)cccc2n1 (as salt: hydrochloride) [Example 173, N-(1-Adamantylmethyl)-2-[3-(ethylamino)propyl]quinoline-5-carboxamide Dihydrochloride]
130 to 135 °C |  | O=C(CC12CC3CC(CC(C3)C1)C2)Nc1cccc2nc(CCCNCCCO)ccc12 (as salt: hydrochloride) [Example 177, 2-(1-Adamantyl)-N-(2-{3-[(3-hydroxypropyl)amino]propyl}quinolin-5-yl)acetamide Dihydrochloride]
276 °C |  | Cc1ccc2nc(N3CCNCC3)ccc2c1NC(=O)CC12CC3CC(CC(C3)C1)C2 (as salt: hydrochloride) [Example 178, 2-(1-Adamantyl)-N-(6methyl-2-piperazin-1-ylquinolin-5-yl)acetamide Dihydrochloride]
306 °C |  | Cc1ccc2nc(N3CCC(NCCO)CC3)ccc2c1NC(=O)CC12CC3CC(CC(C3)C1)C2 (as salt: hydrochloride) [Example 181, 2-(1-Adamantyl)-N-(2-{4-[(2-hydroxyethyl)amino]piperidin-1-yl}-6-methylquinolin-5-yl)acetamide Dihydrochloride]
280 to 283 °C |  | O=C(CC12CC3CC(CC(C3)C1)C2)Nc1c(Cl)ccc2nc(N3CCNCC3)ccc12 (as salt: hydrochloride) [Example 207, 2-(1-Adamantyl)-N-(6-chloro-2-piperazin-1-ylquinolin-5-yl)acetamide]
147 to 148 °C (dec.) |  | O=C(NCC12CC3CC(CC(C3)C1)C2)c1cc(CCCNCCCO)nc2ccccc12 (as salt: salt) [Example 168, N-(1-Adamantylmethyl)-2-{3-[(3-hydroxypropyl)amino]propyl}quinoline-4-carboxamide Benzoic Acid Salt]
103 to 107 °C |  | Cc1ccc2nc(NCCO)ccc2c1NC(=O)CC12CC3CC(CC(C3)C1)C2 (as salt: trifluoroacetic acid salt) [Example 13, 2-(1-Adamantyl)-N-{2[(2-hydroxyethyl)amino]-6-methylquinolin-5-yl}acetamide]
193 to 195 °C |  | Cc1ccc2nc(N(C)CCN(C)C)ccc2c1NC(=O)CC12CC3CC(CC(C3)C1)C2 (as salt: trifluoroacetic acid salt) [Example 14, 2-(1-Adamantyl)-N-{2-[[2-(dimethylamino)ethyl](methyl)amino]-6-methylquinolin-5-yl}acetamide]
 | 0.00891 | O=C(CC12CC3CC(CC(C3)C1)C2)Nc1cccc2nc(NCCCO)ccc12 [Example 6, 2-(1-Adamantyl)-N-{2-[(3-hydroxypropyl)amino]quinolin-5-yl}acetamide]
168 to 174 °C |  | Cc1ccc2nc(NCCCO)ccc2c1NC(=O)CC12CC3CC(CC(C3)C1)C2 [Example 12, 2(1-Adamantyl)-N-{2-[(3-hydroxypropyl)amino]-6-methylquinolin-5-yl}acetamide]
 | 0.0794 | O=C(CC12CC3CC(CC(C3)C1)C2)Nc1cccc2cnccc12 [Example 160, 2-(1-Adamantyl)-N-isoquinolin-5-ylacetamide]
 | 0.00501 | CNCCCc1ccc2c(C(=O)NCC34CC5CC(CC(C5)C3)C4)c(Cl)ccc2n1 [Example 167, N-(1-Adamantylmethyl)-6-chloro-2-[3-(methylamino)propyl]quinoline-5-carboxamide Sesquihydrochloride]
 | 0.0251 | O=C(NCC12CC3CC(CC(C3)C1)C2)c1cc(CCCNCCCO)nc2ccccc12 [Example 168, N-(1-Adamantylmethyl)-2-{3-[(3-hydroxypropyl)amino]propyl}quinoline-4-carboxamide Benzoic Acid Salt]
 | 0.0263 | O=C(NCC12CC3CC(CC(C3)C1)C2)c1c(Cl)ccc2nc(CN3CCNCC3)ccc12 [Example 170, N-(1-Adamantylmethyl)-6-chloro-2-(piperazin-1-ylmethyl)quinoline-5-carboxamide Hydrochloride]
 | 0.0186 | O=C(CC12CC3CC(CC(C3)C1)C2)Nc1c(Cl)ccc2nc(CN3CCN(CCO)CC3)ccc12 [Example 196, 2-(1-Adamantyl)-N-(6chloro-2-{[4-(2-hydroxyethyl)piperazin-1-yl]methyl}quinlolin-5-yl)acetamide]
217 to 224 °C |  | CNCCCNc1ccc2c(NC(=O)CC34CC5CC(CC(C5)C3)C4)c(C)ccc2n1 [Example 204, 2-(1-Adamantyl)-N-(6-methyl-2-{[3-(methylamino)propyl]amino}quinolin-5-yl)acetamide]

The next lines start with the molecule.

Structure (SMILES) | melting point | IC50 [1] [µM]
CNCCCc1cccc2c(C(=O)NCC34CC5CC(CC(C5)C3)C4)ccnc12 (as salt: hydrochloride) | 243 to 246 °C (dec.) | 
O=C(NCC12CC3CC(CC(C3)C1)C2)c1cccc2nc(CCCNCCCO)ccc12 (as salt: hydrochloride) | 150 to 152 °C | 
Cc1ccc2nc(NCCNCCO)ccc2c1NC(=O)CC12CC3CC(CC(C3)C1)C2 (as salt: hydrochloride) | 227 to 230 °C | 
O=C(CC12CC3CC(CC(C3)C1)C2)Nc1c(Cl)ccc2nc(NCCNCCO)ccc12 (as salt: hydrochloride) | 219 to 223 °C | 
Cc1ccc2nc(N3CCN(CCO)CC3)ccc2c1NC(=O)CC12CC3CC(CC(C3)C1)C2 (as salt: hydrochloride) | 224 °C | 
Cc1ccc2nc(N3CCC(N)CC3)ccc2c1NC(=O)CC12CC3CC(CC(C3)C1)C2 (as salt: hydrochloride) | 295 °C | 
Cc1ccc2nc(N3CC[C@H](N)C3)ccc2c1NC(=O)CC12CC3CC(CC(C3)C1)C2 (as salt: hydrochloride) | 291 °C | 
Cc1ccc2nc(N3CC[C@H](NC(=O)N4CC[C@H](N)C4)C3)ccc2c1NC(=O)CC12CC3CC(CC(C3)C1)C2 (as salt: hydrochloride) | 270 °C | 
O=C(CC12CC3CC(CC(C3)C1)C2)Nc1c(Cl)ccc2nc(CC[C@@H](O)CO)ccc12 (as salt: hydrochloride) | 147 to 150 °C | 
CNCCNc1ccc2c(NC(=O)CC34CC5CC(CC(C5)C3)C4)c(Cl)ccc2n1 (as salt: hydrochloride) | 232 to 234 °C | 
O=C(CC12CC3CC(CC(C3)C1)C2)Nc1c(Cl)ccc2nc(NCCCNCCO)ccc12 (as salt: hydrochloride) | 264 to 266 °C | 
CNCCCc1ccc2c(C(=O)NCC34CC5CC(CC(C5)C3)C4)cccc2n1 (as salt: hydrochloride) | 158 to 160 °C | 
O=C(NCC12CC3CC(CC(C3)C1)C2)c1cccc2ncccc12 (as salt: trifluoroacetate) | 125 to 127 °C (dec.) | 
O=C(CC12CC3CC(CC(C3)C1)C2)Nc1c(Cl)ccc2nc(CN[C@@H]3CCNC3)ccc12 (as salt: trifluoroacetate) | 90 to 91 °C | 
O=C(CC12CC3CC(CC(C3)C1)C2)Nc1c(Cl)ccc2nc(CN3CCNCC3)ccc12 (as salt: trifluoroacetate) | 132 to 136 °C | 
O=C(CC12CC3CC(CC(C3)C1)C2)Nc1c(Cl)ccc2ncccc12 [Example 5, 2-(1-Adamantyl)-N-(6-chloroquinolin-5-yl)acetamide] | 219 to 220 °C | 
